{"source": "paper PMC6201879", "about": "“N-substituted phenylbenzamides of the niclosamide chemotype attenuate obesity related changes in high fat diet fed mice” (PLoS ONE, 2018)", "key": {"[1]": {"experiment": "Metabolic stability in human liver microsomes", "type": "in vitro ADME", "protocol": "(§1) Three experiments were performed with 1) 0.5mg/ml microsomes and 1mM NADPH, 2) 0.5mg/ml microsomes without NADPH and 3) 0.5mg/ml heat inactivated microsomes without NADPH in 100mM phosphate buffer, containing 5mM magnesium chloride. […] At the indicated time points, 50μl samples were removed and stopped by addition of 4 volumes of cold acetonitrile with internal standards, 100nM alprazolam, 200nM labetalol and 2μM ketoprofen. The samples were centrifuged at 3,220 g for 40 minutes and aliquots of 100μl were subsequently diluted with 100μl of ultra-pure water and analyzed by LC/MS/MS using a (Shimadzu corporation) LC system coupled to a Shimadzu Triple Quad 5500 mass spectrometer with an ESI interface. The LC system used a Waters XSelect HSS T3 C18, 2.5μm, 2.1 x 50 mm column eluted with one of two methods using mobile phases A (water, 0.1% formic acid) and B (acetonitrile, 0.1% formic acid). […] The Shimadzu Triple Quad 5500 MS was operated with the following parameters: Ion source: Turbo spray; Ionization mode: ESI; Scan type: MRM; Collision gas: 10 L/min; Curtain gas: 30 L/min; Nebulize gas: 50 L/min; Auxiliary gas: 50 L/min; Temperature: 500°C; Ionspray voltage: +5500 V (positive MRM). All experiments were performed in duplicate. Data were analyzed using Microsoft excel, and peak areas were determined from extracted ion chromatograms."}, "[2]": {"experiment": "Pharmacokinetic profile in Sprague Dawley rats (IV and PO)", "type": "in vivo", "conditions": "Mean + SD (n = 3)", "protocol": "To evaluate the pharmacokinetic profile by oral (PO) and intravenous (IV) administration routes we used 6 to 8-week old Sprague Dawley rats weighing approximately 200-330g (n = 3 per study group). Compounds were administered at 1mg/kg in 5% Cremophor EL and 20% PEG400 in water for IV and 5mg/kg in PBS for PO. All dose formulation was performed at room temperature. Animals were fasted overnight prior to dosing and were re-fed approximately 4 hours after dosing. For PO, 0.2ml of blood was collected pre- and 0.5, 1, 2, 4 8 12 and 24-hours after drug delivery and transferred to EDTA-K2 BD Vacutainer plastic blood collection tubes. IV samples were collected pre-injection and 0.08, 0.25, 0.5, 1, 2, 4, 8, 12, 24-hours post injection. Blood samples were centrifuged at 2,000 g for 5 minutes at 4°C to obtain plasma. Plasma samples were stored at -75±15°C prior to analysis and then thawed and analyzed by LC-MS/MS method and pharmacokinetic calculations were performed using WinNolin (Phoenix, version 6.4). For IV administration: T1/2, C0, AUClast, AUCinf, MRT, Cl, Vss, and number of points for regression were determined. For PO administration: T1/2, Cmax, Tmax, AUCinf, AUClast, F(0-∞) %, and number of points for regression were determined. Data are reported as mean and standard deviation."}, "[3]": {"tested_on": "Salmonella typhimurium TA98", "experiment": "Ames assay, strain TA98", "conditions": "for Mean Revertant Colony Counts TA98 SP9+: with S9; for Mean Revertant Colony Counts TA98 S9-: without S9"}, "[4]": {"tested_on": "Salmonella typhimurium TA100", "conditions": "for Mean Revertant Colony Counts TA-100 SP9+: with S9; for Mean Revertant Colony Counts TA-100 S9-: without S9"}, "[5]": {"experiment": "Metabolic stability in mouse liver microsomes", "type": "in vitro ADME", "conditions": "60 min", "protocol": "as §1"}, "PH5CH8 liver cells": {"tested_on": "PH5CH8 liver cells", "experiment": "High-throughput hepatic de novo lipogenesis (DNL) assay, high content imaging of steatotic phenotype", "type": "cell-based, human", "conditions": "for IC50: Homo sapiens"}, "[6]": {"conditions": "0.5mg/ml microsomes and 1mM NADPH"}, "[7]": {"conditions": "0.5mg/ml microsomes without NADPH"}, "[8]": {"conditions": "heat inactivated microsomes without NADPH"}, "[9]": {"conditions": "any concentration tested, vs negative control"}}, "note": "Like-named read-outs stand apart in the source and are kept apart here."}
{"smiles": "CC(C)(C)c1ccc(O)c(C(=O)Nc2ccc(C(=O)O)cc2Cl)c1", "note": "[Compound 500200, 4-[(5-tert-butyl-2-hydroxybenzene)amido]-3-chlorobenzoic acid]", "values": [{"measurement": "Remaining Percentage of 60 min (%), Human, Tested Sample", "setting": "[1]; [6]", "value": 84.5, "unit": "%"}, {"measurement": "Remaining Percentage of 60 min (%), Human, Negative Control", "setting": "[1]; [7]", "value": 110.2, "unit": "%"}, {"measurement": "Remaining Percentage of 60 min (%), Human, Heat-inactivated Control", "setting": "[1]; [8]", "value": 96.6, "unit": "%"}, {"measurement": "AUC _%Extrap_obs (IV)", "setting": "[2]; IV 1 mg/kg", "value": "0.13 +/- 0.016%"}, {"measurement": "AUCl ast/D (IV)", "setting": "[2]; IV 1 mg/kg", "value": "1940 ± 166", "unit": "ng·kg·h/mL/mg"}, {"measurement": "V ss_obs", "setting": "[2]; IV 1 mg/kg", "value": "0.13 ± 0.020", "unit": "L/kg"}, {"measurement": "AUC _%Extrap_obs (PO)", "setting": "[2]; PO 5 mg/kg in PBS", "value": "1.94 +/- 1.27%"}, {"measurement": "AUC last / D (PO)", "setting": "[2]; PO 5 mg/kg in PBS", "value": "43.3 ± 25.3", "unit": "ng·kg·h/mL/mg"}, {"measurement": "half-life", "setting": "[2]; Sprague Dawley, rat, plasma, iv, 1 mg/kg, IV 1 mg/kg, read-out: T 1/2 (IV) (converted)", "value": "1.66 ± 0.48", "unit": "h"}, {"measurement": "Cmax", "setting": "[2]; Sprague Dawley, rat, plasma, po, 5 mg/kg, PO 5 mg/kg in PBS", "value": "50.8 ± 35.7", "unit": "ng/mL"}, {"measurement": "half-life", "setting": "[2]; Sprague Dawley, rat, plasma, po, 5 mg/kg, PO 5 mg/kg in PBS, read-out: T 1/2 (PO) (converted)", "value": "1.51 ± 0.4", "unit": "h"}, {"measurement": "bioavailability", "setting": "[2]; Sprague Dawley, rat, plasma, po, 5 mg/kg, PO 5 mg/kg vs IV 1 mg/kg, read-out: F (oral bioavailability)", "value": "2.26 ± 1.29", "unit": "%"}, {"measurement": "C0", "setting": "[2]; rat, plasma, IV 1 mg/kg", "value": "13800 ± 2610", "unit": "ng/mL"}, {"measurement": "AUC(0-inf)", "setting": "[2]; rat, plasma, IV 1 mg/kg, read-out: AUC Inf (IV)", "value": "1940 ± 166", "unit": "ng·h/mL"}, {"measurement": "AUC(0-t)", "setting": "[2]; rat, plasma, IV 1 mg/kg, read-out: AUC last (IV)", "value": "1940 ± 166", "unit": "ng·h/mL"}, {"measurement": "clearance", "setting": "[2]; rat, plasma, IV 1 mg/kg, read-out: Cl_obs", "value": "8.63 ± 0.78", "unit": "mL/min/kg"}, {"measurement": "MRT inf", "setting": "[2]; rat, plasma, IV 1 mg/kg, read-out: MRT Inf_obs (IV)", "value": "0.26 ± 0.048", "unit": "h"}, {"measurement": "Tmax", "setting": "[2]; rat, plasma, PO 5 mg/kg in PBS", "value": "3.33 ± 1.15", "unit": "h"}, {"measurement": "AUC(0-inf)", "setting": "[2]; rat, plasma, PO 5 mg/kg in PBS, read-out: AUC Inf (PO)", "value": "220 ± 1250", "unit": "ng·h/mL"}, {"measurement": "AUC(0-t)", "setting": "[2]; rat, plasma, PO 5 mg/kg in PBS, read-out: AUC last (PO)", "value": "216 ± 127", "unit": "ng·h/mL"}, {"measurement": "MRT inf", "setting": "[2]; rat, plasma, PO 5 mg/kg in PBS, read-out: MRT Inf_obs (PO)", "value": "4.04 ± 0.68", "unit": "h"}, {"measurement": "Mean Revertant Colony Counts TA98 SP9+", "setting": "[3]; 1.5 ug/Well", "value": 7.7}, {"measurement": "Mean Revertant Colony Counts TA98 S9-", "setting": "[3]; 1.5 ug/Well", "value": 9.0}, {"measurement": "Mean Revertant Colony Counts TA98 SP9+", "setting": "[3]; 4 ug/Well", "value": 6.3}, {"measurement": "Mean Revertant Colony Counts TA98 S9-", "setting": "[3]; 4 ug/Well", "value": 12.0}, {"measurement": "Mean Revertant Colony Counts TA98 SP9+", "setting": "[3]; 10 ug/Well", "value": 9.0}, {"measurement": "Mean Revertant Colony Counts TA98 S9-", "setting": "[3]; 10 ug/Well", "value": 8.7}, {"measurement": "Mean Revertant Colony Counts TA98 SP9+", "setting": "[3]; 25 ug/Well", "value": 7.3}, {"measurement": "Mean Revertant Colony Counts TA98 S9-", "setting": "[3]; 25 ug/Well", "value": 9.0}, {"measurement": "Mean Revertant Colony Counts TA98 SP9+", "setting": "[3]; 64 ug/Well", "value": 9.0}, {"measurement": "Mean Revertant Colony Counts TA98 S9-", "setting": "[3]; 64 ug/Well", "value": 7.7}, {"measurement": "Mean Revertant Colony Counts TA98 SP9+", "setting": "[3]; 160 ug/Well", "value": 11.0}, {"measurement": "Mean Revertant Colony Counts TA98 S9-", "setting": "[3]; 160 ug/Well", "value": 5.0}, {"measurement": "Mean Revertant Colony Counts TA98 SP9+", "setting": "[3]; 400 ug/Well", "value": 7.0}, {"measurement": "Mean Revertant Colony Counts TA98 S9-", "setting": "[3]; 400 ug/Well", "value": 9.7}, {"measurement": "Mean Revertant Colony Counts TA98 SP9+", "setting": "[3]; 1000 ug/Well", "value": 4.3}, {"measurement": "Mean Revertant Colony Counts TA98 S9-", "setting": "[3]; 1000 ug/Well", "value": 4.3}, {"measurement": "fold increase in the mean number of revertant colonies, TA98", "setting": "[3]; [9]", "value": "< 2", "unit": "fold"}, {"measurement": "Mean Revertant Colony Counts TA-100 SP9+", "setting": "[4]; 1.5 ug/Well", "value": 18.7}, {"measurement": "Mean Revertant Colony Counts TA-100 S9-", "setting": "[4]; 1.5 ug/Well", "value": 32.3}, {"measurement": "Mean Revertant Colony Counts TA-100 SP9+", "setting": "[4]; 4 ug/Well", "value": 19.7}, {"measurement": "Mean Revertant Colony Counts TA-100 S9-", "setting": "[4]; 4 ug/Well", "value": 25.7}, {"measurement": "Mean Revertant Colony Counts TA-100 SP9+", "setting": "[4]; 10 ug/Well", "value": 22.0}, {"measurement": "Mean Revertant Colony Counts TA-100 S9-", "setting": "[4]; 10 ug/Well", "value": 26.7}, {"measurement": "Mean Revertant Colony Counts TA-100 SP9+", "setting": "[4]; 25 ug/Well", "value": 22.0}, {"measurement": "Mean Revertant Colony Counts TA-100 S9-", "setting": "[4]; 25 ug/Well", "value": 28.0}, {"measurement": "Mean Revertant Colony Counts TA-100 SP9+", "setting": "[4]; 64 ug/Well", "value": 20.3}, {"measurement": "Mean Revertant Colony Counts TA-100 S9-", "setting": "[4]; 64 ug/Well", "value": 26.3}, {"measurement": "Mean Revertant Colony Counts TA-100 SP9+", "setting": "[4]; 160 ug/Well", "value": 27.7}, {"measurement": "Mean Revertant Colony Counts TA-100 S9-", "setting": "[4]; 160 ug/Well", "value": 24.0}, {"measurement": "Mean Revertant Colony Counts TA-100 SP9+", "setting": "[4]; 400 ug/Well", "value": 18.3}, {"measurement": "Mean Revertant Colony Counts TA-100 S9-", "setting": "[4]; 400 ug/Well", "value": 29.7}, {"measurement": "Mean Revertant Colony Counts TA-100 SP9+", "setting": "[4]; 1000 ug/Well", "value": 8.0}, {"measurement": "Mean Revertant Colony Counts TA-100 S9-", "setting": "[4]; 1000 ug/Well", "value": 16.3}, {"measurement": "fold increase in the mean number of revertant colonies, TA100", "setting": "[4]; [9]", "value": "< 2", "unit": "fold"}, {"measurement": "Remaining Percentage of 60 min (%), Mouse, Tested Sample", "setting": "[5]; [6]", "value": 101.2, "unit": "%"}, {"measurement": "Remaining Percentage of 60 min (%), Mouse, Negative Control", "setting": "[5]; [7]", "value": 111.5, "unit": "%"}, {"measurement": "Remaining Percentage of 60 min (%), Mouse, Heat-inactivated Control", "setting": "[5]; [8]", "value": 102.7, "unit": "%"}, {"measurement": "IC50", "setting": "PH5CH8 liver cells; PH5CH8 liver cells, 10-point dose response between 1μM and 1.9nM, read-out: IC50 (uM), inhibition of steatotic phenotype in DNL assay", "value": 0.27, "unit": "µM"}, {"measurement": "IC50", "setting": "PH5CH8 liver cells; S1 Table, SAR for N-Substituted Phenylbenzamides, read-out: IC50", "value": 0.034, "unit": "µM"}, {"measurement": "Active/Inactive", "setting": "PH5CH8 liver cells; S1 Table, SAR for N-Substituted Phenylbenzamides", "value": "Active"}]}
